# In patent US10294202B2, “Pyrrolidinones as herbicides” (FMC Corporation, priority 2013, dated 2019):
# Assays:
# [1] = tested on: small-flower umbrella sedge (CYPDI); assay: Test G paddy mixture test (Colby); type: in vivo, Cyperus difformis; conditions: applied alone, 14 d; for CYPDI Obsd.: scale 0-100; for CYPDI Obsd. plant response rating (scale 0 to 100): flooded
# Summary of the method: (§1)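 Weeds sown in Tama soil tubs; barnyardgrass and transplanted japonica rice grown in plug flats. Treated at 2.0–2.5 leaf stage; visual rating 0–100 versus controls after 14 d in greenhouse. Expected mixture effect calculated with Colby's equation; rates in g a.i. per area.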
# [2] = tested on: ducksalad (HETLI); assay: Test G paddy mixture test (Colby); type: in vivo, Heteranthera limosa; conditions: applied alone, 14 d; for HETLI Obsd.: scale 0-100; for HETLI Obsd. plant response rating (scale 0 to 100): flooded
# Summary of the method: as §1
# [3] = tested on: barnyardgrass (ECHCG); assay: Test G paddy mixture test (Colby); type: in vivo, Echinochloa crus-galli; conditions: applied alone, 14 d; for ECHCG Obsd.: scale 0-100; for ECHCG Obsd. plant response rating (scale 0 to 100): flooded
# Summary of the method: as §1
# [4] = tested on: giant foxtail (SETFA); assay: Test H preemergence mixture test (Colby); type: in vivo, Setaria faberii; conditions: for Plant response rating, Obsd., SETFA: 21 d after treatment, scale 0 to 100; for SETFA Obsd.: applied alone, 21 d, mean of three replicates, scale 0-100
# Excerpt: (§2) Colby's Equation was used to determine the herbicidal effects expected from the mixtures. Colby's Equation (Colby, S. R. “Calculating Synergistic and Antagonistic Responses of Herbicide Combinations,” Weeds, 15(1), pp 20-22 (1967)) calculates the expected additive effect of herbicidal mixtures and for two active ingredients is of the form: Pa+b=Pa+Pb−(PaPb/100)
# (§3) where • Pa+b is the percentage effect of the mixture expected from additive contribution of the individual components: • Pa is the observed percentage effect of the first active ingredient at the same use rate as in the mixture, and • Pb is the observed percentage effect of the second active ingredient at the same use rate as in the mixture. In the following Tables, rates are shown in grams of active ingredient per hectare (g a.i./ha); “Obsd.” is the observed effect. “Exp.” is the expected effect calculated from Colby's Equation.
# (§4) This test evaluated the effect of mixtures of compound 80 with several commercial herbicides on four plant species. Seeds of plant species selected from corn (ZEAMD, Zea mays), soybean (GLXMA, Glycine max), waterhemp (common waterhemp, AMATA, Amaranthus rudis), and giant foxtail (SETFA, Setaria faberii) were planted into a silt loam soil and treated preemergence with test chemicals formulated in a non-phytotoxic solvent mixture which included a surfactant and applied using a volume of 281 L/ha. Each treatment was replicated three times. Treated plants and controls were maintained in a greenhouse using supplemental lighting to maintain a photoperiod of about 16 h; daytime and nighttime temperatures were about 24-30° C. and 19-21° C., respectively. Nutrients were applied using a balanced fertilizer applied through the watering system. At 21 d after treatment, all species were compared to controls and visually evaluated. Plant response ratings were calculated as the means of the three replicates, are summarized in Tables H1 through H5, and are based on a scale of 0 to 100 where 0 is no effect and 100 is complete control. A dash (-) response means no test result. The Expected (Exp.) results were calculated using Colby's Equation as described for Test G above.
# [5] = tested on: soybean (GLXMA); assay: Test H preemergence mixture test (Colby); type: in vivo, Glycine max; conditions: for Plant response rating, Obsd., GLXMA: 21 d after treatment, scale 0 to 100; for GLXMA Obsd.: applied alone, 21 d, mean of three replicates, scale 0-100
# Excerpt: as §2, §3, §4
# [6] = tested on: corn (ZEAMD); assay: Test H preemergence mixture test (Colby); type: in vivo, Zea mays; conditions: for Plant response rating, Obsd., ZEAMD: 21 d after treatment, scale 0 to 100; for ZEAMD Obsd.: applied alone, 21 d, mean of three replicates, scale 0-100
# Excerpt: as §2, §3, §4
# [7] = tested on: waterhemp (AMATA); assay: Test H preemergence mixture test (Colby); type: in vivo, Amaranthus rudis; conditions: for Plant response rating, Obsd., AMATA: 21 d after treatment, scale 0 to 100; for AMATA Obsd.: applied alone, 21 d, mean of three replicates, scale 0-100
# Excerpt: as §2, §3, §4
# [8] = tested on: deadnettle; assay: Test C postemergence herbicide test; type: in vivo, Lamium amplexicaule
# Excerpt: At the same time, plants selected from these crop and weed species and also barley (winter barley, Hordeum vulgare), […]), chickweed (common chickweed, Stellaria media), deadnettle (henbit deadnettle, Lamium amplexicaule), and canarygrass (littleseed canarygrass, Phalaris minor) were planted in pots containing Redi-Earth® planting medium (Scotts Company, 14111 Scottslawn Road, Marysville, Ohio 43041) comprising spaghnum peat moss, vermiculite, wetting agent and starter nutrients and treated with postemergence applications of test chemicals formulated in the same manner. Plants ranged in height from 2 to 18 cm (1- to 4-leaf stage) for postemergence treatments. Treated plants and controls were maintained in a greenhouse for 13 to 15 days, after which time all species were compared to controls and visually evaluated. Plant response ratings, summarized in Table C, are based on a scale of 0 to 100 where 0 is no effect and 100 is complete control. A dash (-) response means no test result.
compound,measurement,setting,value
"O=C1NC[C@H](c2cccc(C(F)(F)F)c2)[C@H]1C(=O)Nc1ccccc1F [Compound 204, (3R,4S)—N-(2-fluorophenyl)-2-oxo-4-[3-(trifluoromethyl)phenyl]-3-pyrrolidinecarboxamide]",CYPDI Obsd.,[1]; 125 g a.i./ha,0
same,CYPDI Obsd. plant response rating (scale 0 to 100),[1]; 125 g a.i./ha,0
same,CYPDI Obsd.,[1]; 500 g a.i./ha,0
same,CYPDI Obsd. plant response rating (scale 0 to 100),[1]; 500 g a.i./ha,0
same,HETLI Obsd.,[2]; 125 g a.i./ha,100
same,HETLI Obsd. plant response rating (scale 0 to 100),[2]; 125 g a.i./ha,100
same,HETLI Obsd.,[2]; 500 g a.i./ha,100
same,HETLI Obsd. plant response rating (scale 0 to 100),[2]; 500 g a.i./ha,100
same,ECHCG Obsd.,[3]; 125 g a.i./ha,65
same,ECHCG Obsd. plant response rating (scale 0 to 100),[3]; 125 g a.i./ha,65
same,ECHCG Obsd.,[3]; 500 g a.i./ha,90
same,ECHCG Obsd. plant response rating (scale 0 to 100),[3]; 500 g a.i./ha,90
"O=C1NCC(c2ccc(C(F)(F)F)cc2)C1C(=O)Nc1cccc(F)c1F (centres unmarked) [Compound 80, N-(2,3-difluorophenyl)-2-oxo-4-[4-(trifluoromethyl)phenyl]-3-pyrrolidinecarboxamide]","Plant response rating, Obsd., SETFA",[4]; Cmpd 80 alone 62 g a.i./ha,52
same,"Plant response rating, Obsd., SETFA",[4]; Cmpd 80 alone 125 g a.i./ha,78
same,SETFA Obsd.,[4]; 62 g a.i./ha,52
same,SETFA Obsd.,[4]; 125 g a.i./ha,78
same,"Plant response rating, Obsd., GLXMA",[5]; Cmpd 80 alone 62 g a.i./ha,12
same,"Plant response rating, Obsd., GLXMA",[5]; Cmpd 80 alone 125 g a.i./ha,0
same,GLXMA Obsd.,[5]; 62 g a.i./ha,12
same,GLXMA Obsd.,[5]; 125 g a.i./ha,0
same,"Plant response rating, Obsd., ZEAMD",[6]; Cmpd 80 alone 62 g a.i./ha,17
same,"Plant response rating, Obsd., ZEAMD",[6]; Cmpd 80 alone 125 g a.i./ha,13
same,ZEAMD Obsd.,[6]; 62 g a.i./ha,17
same,ZEAMD Obsd.,[6]; 125 g a.i./ha,13
same,"Plant response rating, Obsd., AMATA",[7]; Cmpd 80 alone 62 g a.i./ha,0
same,"Plant response rating, Obsd., AMATA",[7]; Cmpd 80 alone 125 g a.i./ha,33
same,AMATA Obsd.,[7]; 62 g a.i./ha,0
same,AMATA Obsd.,[7]; 125 g a.i./ha,33
"O=C1NCC(c2ccc(F)c(F)c2)C1C(=O)Nc1cccc(F)c1F (centres unmarked) [Compound 17, N-(2,3-difluorophenyl)-4-(3,4-difluorophenyl)-2-oxo-3-pyrrolidinecarboxamide]","Plant response rating, Deadnettle","[8]; 31 g ai/ha, scale 0 (no effect) to 100 (complete control)",0
same,"Plant response rating, Deadnettle","[8]; 62 g ai/ha, scale 0 to 100 (0 no effect, 100 complete control)",0
same,"Plant response rating, Deadnettle","[8]; 125 g ai/ha, scale 0 to 100 (0 no effect, 100 complete control)",0
same,"Plant response rating, Deadnettle","[8]; 250 g ai/ha, scale 0 to 100 (0 no effect, 100 complete control)",0
